# Test results: patent US11447480B2, “Compound exhibiting enteropeptidase inhibitory activity” (LG CHEM, LTD., priority 2018, dated 2022)
# Biological target: Recombinant Human Enteropeptidase (Homo sapiens (Human), UniProt P98073)
# Experiment: Enteropeptidase Inhibition Assay
# Assay type: biochemical
# Conditions: substrate Acetyl-Asp-Asp-Asp-Asp-Lys-AFC 30 μM, 30° C., 1 hour; Ki calculated from IC50 using Cheng-Prusoff equation
# Protocol: Enteropeptidase Inhibition Assay
# The inhibitory activity of the enteropeptidase inhibitor synthesized using the purified Recombinant Human Enteropeptidase and the substrate Acetyl-Asp-Asp-Asp-Asp-Lys-AFC (BioVision) was measured. 7.2 ng/mL of Enteropeptidase diluted with a buffer (20 mM Tris, 50 mM NaCl, pH 7.5) in a 96 well plate (Costar), 30 μM of Acetyl-Asp-Asp-Asp-Asp-Lys-AFC, several concentrations of Enteropeptidase inhibitors (1% DMSO concentration) were dispensed such that a final volume was 100 μL, and then the enzyme reaction was carried out at 30° C. for 1 hour. At this time, 1% DMSO, a substrate and Enteropeptidase instead of the compound were dispensed onto positive control wells, and 1% DMSO and a substrate were dispensed onto negative control wells. The enzyme reaction was […] using an excitation wavelength of 380 nm and an emission wavelength of 500 nm in a fluorescence spectrometer, and then the rate of increase in fluorescence (milli-units per min) between 20 and 60 minutes was measured.
# The fluorescence measurement values reduced by the inhibitor diluted at each concentration were converted into relative values % of the positive control group (100% reactivity) and the negative control group (0% reactivity), and used to calculate IC50 values. IC50 is the concentration of the inhibitor that inhibits the enzyme activity by 50%, and was calculated using PRISM (GraphPad). Ki values were calculated from the IC50 values using Cheng-Prusoff equation.
# Recombinant Human Enteropeptidase, sequence (P98073 whole entry): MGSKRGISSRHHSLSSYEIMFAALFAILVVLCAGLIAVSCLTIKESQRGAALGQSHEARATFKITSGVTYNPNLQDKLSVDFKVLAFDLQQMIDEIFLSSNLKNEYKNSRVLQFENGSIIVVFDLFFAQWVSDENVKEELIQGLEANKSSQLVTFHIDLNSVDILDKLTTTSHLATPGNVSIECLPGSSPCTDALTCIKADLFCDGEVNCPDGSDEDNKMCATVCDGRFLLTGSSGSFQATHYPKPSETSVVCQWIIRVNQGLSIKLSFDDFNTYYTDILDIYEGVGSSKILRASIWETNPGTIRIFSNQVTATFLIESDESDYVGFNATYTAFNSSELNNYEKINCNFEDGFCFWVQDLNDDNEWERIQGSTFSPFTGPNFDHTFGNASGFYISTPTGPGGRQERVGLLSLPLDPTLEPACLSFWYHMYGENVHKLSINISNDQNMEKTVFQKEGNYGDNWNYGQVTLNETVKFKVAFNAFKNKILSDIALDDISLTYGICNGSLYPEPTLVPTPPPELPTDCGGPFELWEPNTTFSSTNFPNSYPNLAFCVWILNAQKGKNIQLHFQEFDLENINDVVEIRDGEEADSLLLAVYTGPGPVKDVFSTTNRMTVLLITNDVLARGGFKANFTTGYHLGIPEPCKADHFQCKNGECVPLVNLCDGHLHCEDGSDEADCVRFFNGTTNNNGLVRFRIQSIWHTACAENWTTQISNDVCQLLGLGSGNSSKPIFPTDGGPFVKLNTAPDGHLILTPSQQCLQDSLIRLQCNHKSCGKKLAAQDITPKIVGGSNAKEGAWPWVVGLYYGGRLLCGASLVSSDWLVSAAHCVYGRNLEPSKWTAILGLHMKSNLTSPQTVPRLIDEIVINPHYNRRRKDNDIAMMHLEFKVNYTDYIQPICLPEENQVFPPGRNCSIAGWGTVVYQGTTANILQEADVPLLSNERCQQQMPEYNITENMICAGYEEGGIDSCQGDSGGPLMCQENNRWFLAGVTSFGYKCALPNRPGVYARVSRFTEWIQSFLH
row,Structure (SMILES),Ki [nM]
1,"CN(CCCC(=O)O)C(=O)C1CCN(c2ncc(C(=O)Oc3ccc(C(=N)N)cc3F)s2)CC1 [Example 44, 4-(1-(5-((4-carbamimidoyl-2-fluorophenoxy)carbonyl)thiazol-2-yl)-N-methylpiperidine-4-carboxamido)butanoic Acid]",1.6
2,"CC(C)(CNC(=O)C1CCN(c2ncc(C(=O)Oc3ccc(C(=N)N)cc3F)s2)CC1)C(=O)O [Example 45, 3-(1-(5-((4-Carbamimidoyl-2-fluorophenoxy)carbonyl)thiazol-2-yl)piperidine-4-carboxamido)-2,2-dimethylpropanoic Acid]",1.5
3,"CCN(CCC(=O)N[C@@H](CC(=O)OC(C)(C)C)C(=O)OC(C)(C)C)c1ncc(C(=O)Oc2ccc(C(=N)N)cc2F)s1 [Example 46, Di-tert-butyl(3-((5-((4-carbamimidoyl-2-fluorophenoxy)carbonyl)thiazol-2-yl)(ethyl)amino)propanoyl)-L-aspartate]",40
4,"CCN(CCC(=O)N[C@@H](CC(=O)O)C(=O)O)c1ncc(C(=O)Oc2ccc(C(=N)N)cc2F)s1 [Example 47, (3-((5-((4-Carbamimidoyl-2-fluorophenoxy)carbonyl)thiazol-2-yl)(ethyl)amino)propanoyl)-L-aspartic Acid]",0.52
5,CCN(CCC(=O)N[C@H](CCC(=O)OC(C)(C)C)C(=O)OC(C)(C)C)c1ncc(C(=O)Oc2ccc(C(=N)N)cc2F)s1 [Example 48],37
6,"CCN(CCC(=O)N[C@H](CCC(=O)O)C(=O)O)c1ncc(C(=O)Oc2ccc(C(=N)N)cc2F)s1 [Example 49, (3-((5-((4-Carbamimidoyl-2-fluorophenoxy)carbonyl)thiazol-2-yl)(ethyl)amino)propanoyl)-D-glutamic Acid]",0.57
7,"CCN(CCC(=O)Nc1ccc(C(=O)OC)cc1)c1ncc(C(=O)Oc2ccc(C(=N)N)cc2F)s1 [Example 50, 4-Carbamimidoyl-2-fluorophenyl 2-(ethyl(3-((4-(methoxycarbonyl)phenyl)amino)-3-oxopropyl)amino)thiazole-5-carboxylate]",14
8,"CCN(CCC(=O)Nc1cccc(C(=O)OC)c1)c1ncc(C(=O)Oc2ccc(C(=N)N)cc2F)s1 [Example 51, 4-Carbamimidoyl-2-fluorophenyl 2-(ethyl(3-((3-(methoxycarbonyl)phenyl)amino)-3-oxopropyl)amino)thiazole-5-carboxylate]",9.7
9,"CCN(CCC(=O)Nc1ccc(C(=O)OC(C)(C)C)cc1)c1ncc(C(=O)Oc2ccc(C(=N)N)cc2F)s1 [Example 52, 4-Carbamimidoyl-2-fluorophenyl 2-((3-((4-(tert-butoxycarbonyl)phenyl)amino)-3-oxopropyl)(ethyl)amino)thiazole-5-carboxylate]",82
10,CCN(CCC(=O)Nc1cccc(C(=O)OC(C)(C)C)c1)c1ncc(C(=O)Oc2ccc(C(=N)N)cc2F)s1 [Example 53],12
11,"CCN(CCC(=O)Nc1cccc(C(=O)O)c1)c1ncc(C(=O)Oc2ccc(C(=N)N)cc2F)s1 [Example 54, 3-(3-((5-((4-Carbamimidoyl-2-fluorophenoxy)carbonyl)thiazol-2-yl)(ethyl)amino)propanamido)benzoic Acid]",2.5
12,"CCN(CCC(=O)Nc1ccc(C(=O)O)cc1)c1ncc(C(=O)Oc2ccc(C(=N)N)cc2F)s1 [Example 55, 4-(3-((5-((4-Carbamimidoyl-2-fluorophenoxy)carbonyl)thiazol-2-yl)(ethyl)amino)propanamido)benzoic Acid]",8.2
13,"CC(C)(CNc1nc2ccc(C(=O)Oc3ccc(C(=N)N)cc3F)cc2s1)C(=O)O [Example 56, 3-((6-((4-Carbamimidoyl-2-fluorophenoxy)carbonyl)benzo[d]thiazol-2-yl)amino)-2,2-dimethylpropanoic Acid]",0.59
14,"COC(=O)C1CCN(c2nc3ccc(C(=O)Oc4ccc(C(=N)N)cc4)cc3s2)CC1 [Example 57, 4-Carbamimidoylphenyl 2-(4-(methoxycarbonyl)piperidin-1-yl)benzo[d]thiazole-6-carboxylate]",13
15,"N=C(N)c1ccc(OC(=O)c2ccc3nc(N4CCC(C(=O)O)CC4)sc3c2)cc1 [Example 58, 1-(6-((4-Carbamimidoylphenoxy)carbonyl)benzo[d]thiazol-2-yl)piperidine-4-carboxylic Acid]",7.4
16,"COC(=O)CCNc1nc2ccc(C(=O)Oc3ccc(C(=N)N)cc3)cc2s1 [Example 59, 4-Carbamimidoylphenyl 2-((3-methoxy-3-oxopropyl)amino)benzo[d]thiazole-6-carboxylate]",14
17,"COC(=O)CCN(C)c1nc2ccc(C(=O)Oc3ccc(C(=N)N)cc3)cc2s1 [Example 60, 4-Carbamimidoylphenyl 2-((3-methoxy-3-oxopropyl)(methyl)amino)benzo[d]thiazole-6-carboxylate]",10
18,"CCN(CCC(=O)OC)c1nc2ccc(C(=O)Oc3ccc(C(=N)N)cc3)cc2s1 [Example 61, 4-Carbamimidoylphenyl 2-(ethyl(3-methoxy-3-oxopropyl)amino)benzo[d]thiazole-6-carboxylate]",10
19,"CN(CCC(=O)O)c1nc2ccc(C(=O)Oc3ccc(C(=N)N)cc3)cc2s1 [Example 62, 3-((6-((4-Carbamimidoylphenoxy)carbonyl)benzo[d]thiazol-2-yl)(methyl)amino)propanoic Acid]",4.3
20,"COC(=O)CCCN(C)c1nc2ccc(C(=O)Oc3ccc(C(=N)N)cc3)cc2s1 [Example 63, 4-Carbamimidoylphenyl 2-((4-methoxy-4-oxobutyl)(methyl)amino)benzo[d]thiazole-6-carboxylate]",13
21,"CN(CCCC(=O)O)c1nc2ccc(C(=O)Oc3ccc(C(=N)N)cc3)cc2s1 [Example 64, 4-((6-((4-Carbamimidoylphenoxy)carbonyl)benzo[d]thiazol-2-yl)(methyl)amino)butanoic Acid]",6.4

# More lines, now with the values ahead:
row,Ki [nM],Structure (SMILES)
1,5.7,"N=C(N)c1ccc(OC(=O)c2ccc3nc(NCCC(=O)O)sc3c2)cc1 [Example 65, 3-((6-((4-Carbamimidoylphenoxy)carbonyl)benzo[d]thiazol-2-yl)amino)propanoic Acid]"
2,4.8,"CCN(CCC(=O)O)c1nc2ccc(C(=O)Oc3ccc(C(=N)N)cc3)cc2s1 [Example 66, 3-((6-((4-Carbamimidoylphenoxy)carbonyl)benzo[d]thiazol-2-yl)(ethyl)amino)propanoic Acid]"
3,19,"COC(=O)C(C)(C)CNc1nc2ccc(C(=O)Oc3ccc(C(=N)N)cc3)cc2s1 [Example 67, 4-Carbamimidoylphenyl 2-((3-methoxy-2,2-dimethyl-3-oxopropyl)amino)benzo[d]thiazole-6-carboxylate]"
4,6,"COC(=O)C(C)(C)CN(C)c1nc2ccc(C(=O)Oc3ccc(C(=N)N)cc3)cc2s1 [Example 68, 4-Carbamimidoylphenyl 2-((3-methoxy-2,2-dimethyl-3-oxopropyl)(methyl)amino)benzo[d]thiazole-6-carboxylate]"
5,21,"CCN(CC(C)(C)C(=O)OC)c1nc2ccc(C(=O)Oc3ccc(C(=N)N)cc3)cc2s1 [Example 69, 4-Carbamimidoylphenyl 2-(ethyl(3-methoxy-2,2-dimethyl-3-oxopropyl)amino)benzo[d]thiazole-6-carboxylate]"
6,3.5,"CCN(CC(C)(C)C(=O)OC)c1nc2ccc(C(=O)Oc3ccc(C(=N)N)cc3F)cc2s1 [Example 70, 4-Carbamimidoyl-2-fluorophenyl 2-(ethyl(3-methoxy-2,2-dimethyl-3-oxopropyl)amino)benzo[d]thiazole-6-carboxylate]"
7,1.1,"COC(=O)CCCN(C)c1nc2ccc(C(=O)Oc3ccc(C(=N)N)cc3F)cc2s1 [Example 71, 4-Carbamimidoyl-2-fluorophenyl 2-((4-methoxy-4-oxobutyl)(methyl)amino)benzo[d]thiazole-6-carboxylate]"
8,1.3,"COC(=O)CCN(C)c1nc2ccc(C(=O)Oc3ccc(C(=N)N)cc3F)cc2s1 [Example 72, 4-Carbamimidoyl-2-fluorophenyl 2-((3-methoxy-3-oxopropyl)(methyl)amino)benzo[d]thiazole-6-carboxylate]"
9,0.89,"CC(C)(CNc1nc2ccc(C(=O)Oc3ccc(C(=N)N)cc3)cc2s1)C(=O)O [Example 73, 3-((6-((4-Carbamimidoylphenoxy)carbonyl)benzo[d]thiazol-2-yl)amino)-2,2-dimethylpropanoic Acid]"
10,8.9,"CCN(CC(C)(C)C(=O)O)c1nc2ccc(C(=O)Oc3ccc(C(=N)N)cc3)cc2s1 [Example 74, 3-((6-((4-Carbamimidoylphenoxy)carbonyl)benzo[d]thiazol-2-yl)(ethyl) Amino)-2,2-dimethylpropanoic Acid]"
11,0.7,"CCN(CC(C)(C)C(=O)O)c1nc2ccc(C(=O)Oc3ccc(C(=N)N)cc3F)cc2s1 [Example 75, 3-((6-((4-Carbamimidoyl-2-fluorophenoxy)carbonyl)benzo[d]thiazol-2-yl)(ethyl)amino)-2,2-dimethyl Propanoic Acid]"
12,0.57,"CN(CCCC(=O)O)c1nc2ccc(C(=O)Oc3ccc(C(=N)N)cc3F)cc2s1 [Example 76, 4-((6-((4-Carbamimidoyl-2-fluorophenoxy)carbonyl)benzo[d]thiazol-2-yl)(methyl)amino)butanoic Acid]"
